Experimental data reported in patent US20130245126A1, “GERANYLGERANYLACETONE FORMULATIONS AND RETINAL DELIVERY THEREOF” (COYOTE PHARMACEUTICALS, INC., priority 2012, published 2013).
“And” between values parts separate entries of the source, which are not always exact repeats. Equal values may be shown once. Read-outs that look alike come from different tables or passages of the source.

Key:
[1] = Rat ocular pharmacokinetics: GGA concentration in eye balls after topical eye drops (LC-MS/MS); type: in vivo; details: for Mean of Duplicate / R/L: per rat; for Concentration: single determination; for R/L: ratio of right to left eye concentration
Procedure: (§1) In Cohort 2 the efficacy of Formulation 102 was tested against Formulation 101 and vehicle controls at different time points.
(§2) • Route: topical eye drop formulation • Frequency: 4 or 8 doses, every 1 hour • Dose Administration : under isofluorane anesthesia (2.5%) • Dose Volume: 5 μL in each eye
(§3) • Species: Rat • Strain: Sprague-Dawley • Supplier: Harlan • Sex: Male • Weight at Initiation: 200 to 220 g • Number of Animals: 12 for Cohort 1, 26 for Cohort 2
Eye drops were applied every hour either for 4 hours or for 8 hours. Animals were euthanized 4 hours and 8 hours after the first dosing, and the eye balls collected on dry ice. Eyes were homogenized with a polytron homogenizer in ethanol. GGA was quantified in the eye ball lysates by liquid chromatography-tandem mass spectroscopy.

[2] = system: HSP70; experiment: HSP70 analysis by ELISA in rat eyes after eye drops (Example 17, Cohort 2); type: in vivo; details: for Ratio: compound treated/vehicle treated, Average (AVE): HSP70, average of 4 rats; for Left (compound treated) AVE: HSP70, average of the left-eye values of Table 3 (pg/ml there); for Ratio treated eye/vehicle treated eye: HSP70, individual rat, left (compound) vs right (vehicle) eye; for HSP70: individual rat, compound-treated left eye, 5% eye drop 0.25 mg/eye per dose hourly, harvest time not stated
Procedure: as §1
Cohort 2: HSP70 analysis for ELISA only
as §2, §3

[3] = Ocular, retinal delivery of GGA by eye drop compared to systemic (PO) delivery, AUC (Example 21); type: in vivo; details: for Kp(eye ball) / Kp(retina): 180 mg/kg PO
[4] = Intraocular GGA levels, topical ocular 5% GGA versus 200 mg/kg oral; type: in vivo; details: topical ocular composition of 5% GGA vs 200 mg/kg GGA orally
Excerpt: The level achieved thereby into the ocular tissue was many-folds more, for example, about 5 times more than that achieved by systemic delivery by oral administration. […] Such is even more unexpected in view of the eye being a immunprotected organ which is predisposed to impede compounds from getting into the ocular tissue and to remove any compound entered into it.

[5] = system: HSP70; experiment: HSP70 induction in eye balls by eye drops, ELISA normalized by total protein (Example 18); type: in vivo, Rat
Procedure: Eye drops were applied every hour either for 4 hours or for 8 hours. Animals were euthanized 4 hours, 8 hours or 24 hours after the first dosing, and the eye balls collected on ice. Eyes were homogenized with a polytron homogenizer in a standard lysis buffer containing proteinase inhibitors. HSP70 was quantified by a commercially available ELISA kit and normalized by total protein concentration in the sample.

[6] = contralateral eye, 8 doses, group average of Table 7 means (ng/g there), in ng/g
[7] = left (treated) eye, 4 doses, harvest 4 h
[8] = left (treated) eye, 8 doses, harvest 8 h
[9] = left (treated) eye, 4 hourly doses 0.25 mg/eye, harvest 4 h
[10] = left (treated) eye, 8 hourly doses 0.25 mg/eye, harvest 8 h
[11] = right (contralateral) eye, 4 doses, harvest 4 h
[12] = right (contralateral) eye, 8 doses, harvest 8 h
[13] = treated eye, 8 doses, group average of Table 7 means (ng/g there), in ng/g

Compound | contra/ipsi AVE ([1]; 4 doses, 4 h) | contra/ipsi AVE ([1]; 8 doses, 8 h) | 8 h contra AVE [1, 6] | Mean of Duplicate [1, 7] | Mean of Duplicate [1, 8] | Concentration [1, 9] | Concentration [1, 10] | R/L ([1]; 4 doses, 4 h) | R/L ([1]; 8 doses, 8 h) | Mean of Duplicate [1, 11] | Mean of Duplicate [1, 12] | 8 h ispi AVE [1, 13] | Ratio: compound treated/vehicle treated, Average (AVE) [2] | Left (compound treated) AVE [2] | Ratio treated eye/vehicle treated eye [2] | HSP70 [2] | Kp(eye ball) [3] | Kp(retina) [3] | other results
CC(=O)CC/C=C(\C)CC/C=C(\C)CC/C=C(\C)CCC=C(C)C [CNS-102, (5E, 9E, 13E) geranylgeranyl acetone] | 0.3052 | 0.2617 | 2105 | 30309 ng/g and 21828 ng/g and 17344 ng/g | 10746 ng/g and 8395 ng/g and 7168.5 ng/g | 32854 ng/g and 27764 ng/g and 21506 ng/g and 22150 ng/g and 17494 ng/g and 17194 ng/g | 12094 ng/g and 9398 ng/g and 8505 ng/g and 8285 ng/g and 7547 ng/g and 6790 ng/g | 0.3848 and 0.2037 and 0.327 | 0.1144 and 0.2267 and 0.444 | 4447 ng/g and 5672 ng/g and 11663.5 ng/g | 1229 ng/g and 1903.5 ng/g and 3182.5 ng/g | 8769.833 | 1.089 | 681.9337 | 0.5953 and 1.239 and 1.26 and 1.263 | 685.1953 pg/mL and 757.1621 pg/mL and 583.588 pg/mL and 701.7893 pg/mL | 0.19 | 0.79 | concentration at 4 h ([1]; male, Sprague-Dawley, rat, eye ball (contralateral eye), topical, 0.25 mg/eye, contralateral eye, 4 doses, group average of Table 7 means (ng/g there), read-out: 4 h contra AVE): 7260 ng/g; concentration at 4 h ([1]; male, Sprague-Dawley, rat, eye ball (treated, ipsilateral eye), topical, 0.25 mg/eye, treated eye, 4 doses, group average of Table 7 means (ng/g there), read-out: 4 h ispi AVE): 23200 ng/g
CC(=O)CCC=C(C)CC/C=C(\C)CC/C=C(\C)CCC=C(C)C (mixture of isomers) [GGA, Geranylgeranyl acetone] |  |  |  |  |  |  |  |  |  |  |  |  |  |  |  |  |  |  | levels of geranylgeranyl acetone achieved intraocularly, topical vs oral [4]: about 5 fold; delivery into the retina and the eyeball ([3]; eye drop): effective delivery
CC(=O)CCC=C(C)CC/C=C(\C)CC/C=C(\C)CCC=C(C)C (mixture of isomers) [CNS-101, cis-trans geranylgeranyl acetone] | 0.349 | 0.1718 | 2986.667 | 14722 ng/g and 15163 ng/g and 19992 ng/g | 18546 ng/g and 13199 ng/g and 18795.5 ng/g | 14635 ng/g and 14809 ng/g and 15206 ng/g and 15120 ng/g and 19608 ng/g and 20376 ng/g | 18947 ng/g and 18145 ng/g and 12879 ng/g and 13519 ng/g and 18953 ng/g and 18638 ng/g | 0.4357 and 0.2213 and 0.3901 | 0.1996 and 0.1209 and 0.1949 | 6414.5 ng/g and 3355 ng/g and 7799.5 ng/g | 3701 ng/g and 1596 ng/g and 3663 ng/g | 16846.83 | 1.665 | 952.4506 | 1.003 and 2.135 and 1.544 and 1.976 | 589.4561 pg/mL and 1023.901 pg/mL and 1211.234 pg/mL and 985.2114 pg/mL | 0.71 | 2.21 | 4 h contra AVE ([1]; contralateral eye, 4 doses, group average of Table 7 means (ng/g there), in ng/g): 5856.333; concentration at 4 h ([1]; male, Sprague-Dawley, rat, eye balls, topical, CNS-101 concentrations in eye balls, mean ± SD, 4 × 5 ml 5% CNS-101, measured after 4 hrs): 16600 ng/g; concentration at 8 h ([1]; male, Sprague-Dawley, rat, eye balls, topical, CNS-101 concentrations in eye balls, mean ± SD, 8 × 5 ml 5% CNS-101, measured after 8 hrs): 16800 ng/g; 4 h ispi AVE ([1]; treated eye, 4 doses, group average of Table 7 means (ng/g there), in ng/g): 16625.67; HSP70 expression in eye balls, mean ± SD ([5]; topical ocular 5% CNS-101, 4 hours): 50.7 ± 8.01 pg/mg protein; HSP70 expression in eye balls, mean ± SD ([5]; topical ocular 5% CNS-101, 8 hours): 55.9 ± 11.2 pg/mg protein; HSP70 expression in eye balls, mean ± SD ([5]; topical ocular 5% CNS-101, 24 hours): 50.5 ± 10.8 pg/mg protein
